# Results published in PMC10165273, “Itch receptor MRGPRX4 interacts with the receptor activity–modifying proteins” (The Journal of Biological Chemistry, 2023).
# Several values for one entry are separate records, joined by “and”; a condition that tells them apart may be missing. Identical values can stand only once. Like-named read-outs stand apart in the source and are kept apart here.
# Tests used:
# MRGPRX4 [1] = target: T1, MRGPRX4 (Homo sapiens, UniProt Q96LA9); assay: BRET2 β-arrestin2 recruitment to MRGPRX4; format: cell-based; details: for BRET2 ratio: Fig 5c, MRGPRX4, 100μM ligand, listed as Ng
# T1 construct: expressed in transfected cells; host or cells: HEK293T
# T1 sequence (Q96LA9 whole entry): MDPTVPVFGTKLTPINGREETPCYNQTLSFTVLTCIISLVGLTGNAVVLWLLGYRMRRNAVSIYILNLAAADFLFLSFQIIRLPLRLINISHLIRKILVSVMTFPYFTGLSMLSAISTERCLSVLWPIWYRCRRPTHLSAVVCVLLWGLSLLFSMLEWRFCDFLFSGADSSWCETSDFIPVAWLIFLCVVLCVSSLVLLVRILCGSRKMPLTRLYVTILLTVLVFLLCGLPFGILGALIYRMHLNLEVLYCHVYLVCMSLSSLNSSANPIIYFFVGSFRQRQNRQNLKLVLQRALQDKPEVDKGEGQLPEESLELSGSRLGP
# Source text: (§1) The method for homogenous transfection of β-Arrestin and BRET^2 assay of β-Arrestin recruitment has been described previously ([51]). […] BRET^2 measurements were taken on the BioTek Synergy NEO2 microplate reader.
# (§2) For MRGPRX4 DNA titration assays, HEK293T cells were cotransfected with either β-Arrestin1 or β-Arrestin2 with increasing amounts of MRGPRX4 (0.5, 1, or 2 pg/cell).
# To measure the time-course of β-Arrestin2 recruitment to MRGPRX4 and CALCRL, the transfection and general procedure described above was followed, with the modification that Prolume Purple was added first, followed by addition of the appropriate agonists ([51]).
# (§3) The BRET ratio for each sample was determined by calculating the ratio of the light intensity emitted by the GFP10 (515 nm) (acceptor) over the light intensity emitted by the RLuc3 (395 nm) (donor). Net BRET^2 was determined by subtracting the basal BRET^2 (β-arrestin-RLuc3 only) signal from the BRET^2 signals. All BRET values were normalized to the MRGPRX4-only condition.
# MRGPRX4 + RAMP3 [2] = target: T2, MRGPRX4 + RAMP3 (Homo sapiens, UniProt Q96LA9); assay: BRET2 β-arrestin2 recruitment, MRGPRX4 with RAMP3; format: cell-based
# T2 construct: expressed in transfected cells; host or cells: HEK293T
# T2 sequence (Q96LA9 whole entry): as above
# Protocol: as §1, §3
# MRGPRX4 [3] = target: T1, MRGPRX4; assay: BRET2 β-arrestin1 recruitment to MRGPRX4; format: cell-based; details: for net BRET2 ratio, βArr1 recruitment: Fig 5a, 100µM ligand, replicate values, listed as Ng
# Protocol: as §1, §2, §3
# mock (βArr2) = assay: BRET2 β-arrestin2 recruitment, mock-transfected cells; format: cell-based, human; details: 100µM Ng
# MRGPRX4 [4] = system: MRGPRX4; set-up: method as in PMID 25895059; details: ref [10]; read-out: phosphatidylinositol hydrolysis EC50; cited from earlier work
# MRGPRX4 + RAMP3 [5] = target: T2, MRGPRX4 + RAMP3; assay: IP1 accumulation, MRGPRX4 coexpressed with RAMP3; format: cell-based; set-up: key: % IP1; unstimulated mock = 0%, fully stimulated MRGPRX4 = 100%; details: Figure 4c-f; agonist 100µM; X4:ramp3 1:2; MRGPRX4 = 100
# MRGPRX4 + RAMP1 = target: T3, MRGPRX4 + RAMP1 (Homo sapiens, UniProt Q96LA9); assay: BRET2 β-arrestin2 recruitment, MRGPRX4 with RAMP1; format: cell-based; details: RAMP1 coexpression vs MRGPRX4 alone (Fig. 5F)
# T3 construct: expressed in transfected cells; host or cells: HEK293T
# T3 sequence (Q96LA9 whole entry): as above
# Protocol: as §1, §3
# MRGPRX4 [6] = system: MRGPRX4; set-up: method as in Cao et al. [23]; details: ref Cao et al. [23]; read-out: Ca2+ flux EC50; cited from earlier work
# [7] = MRGPRX4-GFP10 BRET2 time-course, 100 µM (Fig. 5)
compound,measurement,setting,value
CC(C)[C@H]1CC[C@H](C(=O)N[C@H](Cc2ccccc2)C(=O)O)CC1 [Nateglinide],BRET2 ratio,MRGPRX4 [1]; 180 s,0.01716 and 0.01419 and 0.01539
same,BRET2 ratio,MRGPRX4 [1]; 240 s,0.01732 and 0.01509 and 0.01494
same,BRET2 ratio,MRGPRX4 [1]; 300 s,0.01643 and 0.01468 and 0.01593
same,BRET2 ratio,MRGPRX4 [1]; 360 s,0.01701 and 0.01469 and 0.01434
same,BRET2 ratio,MRGPRX4 [1]; 420 s,0.01667 and 0.01531 and 0.01417
same,BRET2 ratio,MRGPRX4 [1]; 480 s,0.01658 and 0.0139 and 0.01409
same,BRET2 ratio,MRGPRX4 [1]; 540 s,0.01614 and 0.01397 and 0.01412
same,BRET2 ratio,MRGPRX4 [1]; 600 s,0.01601 and 0.01404 and 0.013
same,BRET2 ratio,MRGPRX4 [1]; 660 s,0.0171 and 0.01418 and 0.0126
same,BRET2 ratio,MRGPRX4 [1]; 720 s,0.01525 and 0.01442 and 0.01263
same,BRET2 ratio,MRGPRX4 [1]; 780 s,0.01511 and 0.01318 and 0.01349
same,BRET2 ratio,MRGPRX4 [1]; 840 s,0.01493 and 0.01394 and 0.01155
same,BRET2 ratio,MRGPRX4 [1]; 900 s,0.01482 and 0.01445 and 0.01282
same,BRET2 ratio,MRGPRX4 [1]; 960 s,0.01446 and 0.01322 and 0.01117
same,BRET2 ratio,MRGPRX4 [1]; 1020 s,0.01461 and 0.01265 and 0.01275
same,BRET2 ratio,MRGPRX4 [1]; 1080 s,0.01404 and 0.01402 and 0.01514
same,BRET2 ratio,MRGPRX4 [1]; 1140 s,0.01394 and 0.01316 and 0.01206
same,BRET2 ratio,MRGPRX4 [1]; 1200 s,0.01452 and 0.0141 and 0.01263
same,BRET2 ratio,MRGPRX4 [1]; 1260 s,0.01409 and 0.01389 and 0.01057
same,BRET2 ratio,MRGPRX4 [1]; 1320 s,0.01336 and 0.01334 and 0.0149
same,BRET2 ratio,MRGPRX4 [1]; 1380 s,0.01171 and 0.01208 and 0.01329
same,normalized β-arrestin2 recruitment BRET2 signal (Figure 5f),"MRGPRX4 [1]; MRGPRX4, 100μM Ng",1
same,Kfast,MRGPRX4 [1]; [7],0.008519
same,Kslow,MRGPRX4 [1]; [7],0.002534
same,Rate constant ratio,MRGPRX4 [1]; [7],3.361
same,Tau (fast),MRGPRX4 [1]; [7],117.4
same,Tau (slow),MRGPRX4 [1]; [7],394.6
same,two-phase decay Plateau,MRGPRX4 [1]; [7],0.004639
same,two-phase decay x0,MRGPRX4 [1]; [7],56.70
same,two-phase decay y0,MRGPRX4 [1]; [7],0.01291
same,time of peak β-arrestin2 recruitment to MRGPRX4,MRGPRX4 [1]; time course (Fig. 5C),3 min
same,normalized β-arrestin2 recruitment BRET2 signal (Figure 5f),"MRGPRX4 + RAMP3 [2]; MRGPRX4 + RAMP3, 100μM Ng, listed as Ng",0.6122 and 0.604 and 0.6466 and 0.7957
same,attenuation of β-arrestin2 recruitment upon nateglinide treatment,MRGPRX4 + RAMP3 [2]; RAMP3 coexpression vs MRGPRX4 alone (Fig. 5F),34%
same,β-arrestin1 recruitment to MRGPRX4,MRGPRX4 [3]; 100 μM agonist (Fig. 5A),very low β-arrestin1 recruitment
same,"net BRET2 ratio, βArr1 recruitment","MRGPRX4 [3]; MRGPRX4 20ng, 0.5 pg DNA/cell",0.001598 and 0.001911 and 0.001766 and 0.001511 and 0.001907 and 0.001761 and 0.001482 and 0.001441 and 0.001223 and 0.001859 and 0.001157 and 0.001231 and 0.00136 and 0.0008839 and 0.000388 and 0.001053 and 0.001203 and 0.000951 and 0.0007681 and 0.0005323 and 0.0008933 and 0.0008719 and 0.001239 and 0.001046 and 0.001091
same,"net BRET2 ratio, βArr1 recruitment","MRGPRX4 [3]; MRGPRX4 40ng, 1 pg DNA/cell",0.001875 and 0.002517 and 0.002385 and 0.001913 and 0.002075 and 0.001709 and 0.001872 and 0.002414 and 0.002488 and 0.001826 and 0.002129 and 0.001258 and 0.0007412 and 0.002042 and 0.001771 and 0.001548 and 0.001966 and 0.0009568 and 0.001828 and 0.001183 and 0.001043 and 0.001073 and 0.0007023 and 0.00193 and 0.002589 and 0.001421 and 0.00209
same,"net BRET2 ratio, βArr1 recruitment","MRGPRX4 [3]; MRGPRX4 80ng, 2 pg DNA/cell",0.002996 and 0.002474 and 0.002377 and 0.001821 and 0.003223 and 0.002725 and 0.001839 and 0.003232 and 0.002812 and 0.002723 and 0.003057 and 0.001936 and 0.00205 and 0.002139 and 0.001864 and 0.00174 and 0.001944 and 0.002317 and 0.002724
same,"net BRET2 ratio, βArr1 recruitment","MRGPRX4 [3]; βArr1 only, 0 pg MRGPRX4 DNA/cell",0.0003439 and -7.335e-5 and -0.0002706 and -9.392e-5 and -0.0001296 and 0.0002236 and -2.118e-6 and -0.0001045 and 0.0001067 and 0.000324 and -0.0001421 and -0.0001819 and 0.0002245 and -0.0001005 and -0.000124 and -9.463e-5 and 0.0003743 and -0.0002797 and -0.0002549 and 6.253e-5 and 0.0001923 and 0.0001254 and -0.000481 and 0.0003557 and 0.0001817 and -2.148e-5 and -0.0001602
same,β-arrestin recruitment BRET2 signal (Figure 5d),mock (βArr2),-0.01563
same,EC50,MRGPRX4 [4],2.1 µM
same,"response to agonist, X4:ramp3.I:2",MRGPRX4 + RAMP3 [5],54.9628 and 57.8528
same,decrease in β-arrestin2 recruitment upon nateglinide treatment,MRGPRX4 + RAMP1,~10%
same,EC50,MRGPRX4 [6],4.72 µM
